# Measurements: ChEMBL document CHEMBL1157709, “Enhancement of EGFR tyrosine kinase inhibition by C-C multiple bonds-containing anilinoquinazolines” (Bioorg Med Chem, 2010)
# Activity calls are given as the source filed them. The calls are words filed in the database; no cut-off is given here.
# Columns and labels:
# [1] = molecular target: T1, Epidermal growth factor receptor (Homo sapiens, UniProt P00533); assay: Inhibition of recombinant EGFR by ELISA
# [2] = molecular target: T1, Epidermal growth factor receptor; assay: Reversible inhibitory activity of EGF-induced EGFR phosphorylation in human A431 cells at 10 to 100 nM by immunoblot analysis; settings: A-431
# A-431 [3] = assay: Cell cycle arrest in human A431 cells by accumulation at G1 phase at 1 uM after 24 hrs by propidium iodide staining-based flow cytometry (reference value: 39.8+/-0.2%); format: functional
# A-431 [4] = assay: Induction of apoptosis in human A431 cells assessed as pre-necrotic cells level at 3 uM after 12 hrs by annexin V/propidium iodide staining-based flow cytometry (Rvb=0.9+/-0.1%); format: functional
# A-431 [5] = assay: Cell cycle arrest in human A431 cells by accumulation at G1 phase at 3 uM after 24 hrs by propidium iodide staining-based flow cytometry (reference value: 39.8+/-0.2%); format: functional
# A-431 [6] = assay: cells; format: functional; settings: Homo sapiens, A-431, 72 h
# Description: Growth inhibition of human A431 cells after 72 hrs by MTT assay
# A-431 [7] = assay: Induction of apoptosis in human A431 cells assessed as viable cells level at 3 uM after 12 hrs by annexin V/propidium iodide staining-based flow cytometry (reference value: 95.4+/-0.5%); format: functional
# A-431 [8] = assay: Cell cycle arrest in human A431 cells by accumulation at S phase at 1 uM after 24 hrs by propidium iodide staining-based flow cytometry (reference value: 48.5+/-4.2%); format: functional
# A-431 [9] = assay: Cell cycle arrest in human A431 cells by accumulation at G2/M phase at 1 uM after 24 hrs by propidium iodide staining-based flow cytometry (reference value: 11.1+/-3.1%); format: functional
# A-431 [10] = assay: Cell cycle arrest in human A431 cells by accumulation at S phase at 3 uM after 24 hrs by propidium iodide staining-based flow cytometry (reference value: 48.5+/-4.2%); format: functional
# A-431 [11] = assay: Induction of apoptosis in human A431 cells assessed as late apoptotic/necrotic cells level at 3 uM after 12 hrs by annexin V/propidium iodide staining-based flow cytometry (Rvb=0.6+/-0.1%); format: functional
# A-431 [12] = assay: Cell cycle arrest in human A431 cells by accumulation at G2/M phase at 3 uM after 24 hrs by propidium iodide staining-based flow cytometry (reference value: 11.1+/-3.1%); format: functional
# A-431 [13] = assay: Induction of apoptosis in human A431 cells assessed as early apoptotic cells level at 3 uM after 12 hrs by annexin V/propidium iodide staining-based flow cytometry (Rvb=3.1+/-0.5%); format: functional
# T1 sequence (P00533 whole entry): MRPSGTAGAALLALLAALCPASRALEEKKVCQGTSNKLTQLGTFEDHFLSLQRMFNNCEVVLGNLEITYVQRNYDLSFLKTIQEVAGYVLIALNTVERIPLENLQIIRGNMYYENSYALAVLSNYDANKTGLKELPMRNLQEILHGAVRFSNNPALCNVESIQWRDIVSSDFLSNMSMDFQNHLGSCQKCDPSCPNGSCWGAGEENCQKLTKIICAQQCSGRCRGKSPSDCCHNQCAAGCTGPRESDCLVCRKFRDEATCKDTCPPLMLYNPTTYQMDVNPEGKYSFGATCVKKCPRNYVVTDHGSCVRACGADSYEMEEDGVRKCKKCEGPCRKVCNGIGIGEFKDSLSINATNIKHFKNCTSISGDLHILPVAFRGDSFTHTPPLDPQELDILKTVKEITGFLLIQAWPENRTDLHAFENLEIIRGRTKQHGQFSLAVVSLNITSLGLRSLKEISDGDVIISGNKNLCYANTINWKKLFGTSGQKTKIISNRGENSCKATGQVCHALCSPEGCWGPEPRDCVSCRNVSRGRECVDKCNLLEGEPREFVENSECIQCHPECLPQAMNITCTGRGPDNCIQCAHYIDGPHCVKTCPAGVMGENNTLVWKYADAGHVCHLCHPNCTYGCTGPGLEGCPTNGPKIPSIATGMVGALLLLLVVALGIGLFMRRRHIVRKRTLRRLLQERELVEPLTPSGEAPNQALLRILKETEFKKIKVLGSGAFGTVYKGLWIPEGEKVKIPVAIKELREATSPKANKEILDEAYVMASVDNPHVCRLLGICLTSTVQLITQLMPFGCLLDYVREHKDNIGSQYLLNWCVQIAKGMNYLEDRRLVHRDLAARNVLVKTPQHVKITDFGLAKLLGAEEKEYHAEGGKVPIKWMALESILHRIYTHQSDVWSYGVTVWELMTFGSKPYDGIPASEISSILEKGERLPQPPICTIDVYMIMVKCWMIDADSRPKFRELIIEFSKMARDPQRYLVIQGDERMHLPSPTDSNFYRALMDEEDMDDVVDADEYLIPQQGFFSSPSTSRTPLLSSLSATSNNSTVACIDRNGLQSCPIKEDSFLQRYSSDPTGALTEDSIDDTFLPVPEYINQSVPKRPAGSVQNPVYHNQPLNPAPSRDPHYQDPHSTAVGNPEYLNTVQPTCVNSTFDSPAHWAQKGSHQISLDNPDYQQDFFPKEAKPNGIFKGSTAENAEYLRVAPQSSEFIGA
smiles,measurement,setting,value
CCCCCCOc1cc2c(Nc3ccc(F)c(Cl)c3)ncnc2cc1OC,IC50,[1],106 nM
C=CCCCCOc1cc2c(Nc3ccc(F)c(Cl)c3)ncnc2cc1OC,IC50,[1],32.6 nM
C#CCCCCCOc1cc2c(Nc3ccc(F)c(Cl)c3)ncnc2cc1OC,IC50,[1],32.7 nM
C#CCOc1cc2c(Nc3ccc(F)c(Cl)c3)ncnc2cc1OC,inhibition,[2],Active
same,IC50,[1],14.8 nM
C#CCCCOc1cc2c(Nc3cccc(Cl)c3)ncnc2cc1OC,IC50,[1],17.7 nM
C#CCCCOc1cc2c(Nc3ccc(F)c(Cl)c3)ncnc2cc1OC,Activity,A-431 [3],53.5%
same,Activity,A-431 [4],1.1%
same,Activity,A-431 [5],65.3%
same,GI50,A-431 [6],221 nM
same,Activity,A-431 [7],81.2%
same,IC50,[1],2.53 nM
same,Activity,A-431 [8],34.7%
same,Activity,A-431 [9],11.7%
same,Activity,A-431 [10],22.1%
same,Activity,A-431 [11],4.2%
same,Activity,A-431 [12],12.5%
same,Activity,A-431 [13],13.5%
C#CCOc1cc2c(Nc3cccc(Cl)c3)ncnc2cc1OC,inhibition,[2],Active
same,IC50,[1],25.9 nM
C#Cc1cc2c(Nc3ccc(F)c(Cl)c3)ncnc2cc1OC,IC50,[1],> 1000 nM
